In data set [1] the test system is cancer cell lines that have been silenced for BRCA-1 or BRCA-2, or carry BRCA-1 or BRCA-2 mutations.
For data set [2], the system named is PARP activity. The settings on record: tumor homogenates.
The test system of data set [3] is Ewing's sarcoma, ALL, NSCLC, SCLC cell lines and tumor cell lines carrying homozygous inactivation of the ATM gene.
For data set [4] the following is noted: in vivo. As for the experimental part:
Patients with ovarian cancer regardless of platinum sensitivity and burden of disease were randomized to either Group A or Group B with 6 patients assigned to each group. […] In Group B, patients fasted for at least 10 hours before consuming a high fat meal.

For data set [5], the system named is normal human cells.
On data set [6], the source says:
Patients continued to receive their assigned treatment until disease progression, unacceptable toxicity, death, withdrawal of consent, and/or lost to follow-up. Dose interruption and/or reduction were available at any time for any grade toxicity considered intolerable by the patient.
Dose interruption and/or reduction could be implemented at any time for any grade toxicity considered intolerable by the patient. Treatment was required to be interrupted for any non-hematologic AE that was Grade 3 or 4, per NCI CTCAE v.4.02 if the Investigator considered the event to be related to administration of study drug. If toxicity was appropriately resolved to baseline or Grade 1 or less within 28 days, the patient was allowed to restart treatment with study drug, but with a dose level reduction according to Table 4, if prophylaxis was not considered feasible.

Data set [7] concerns PARP activity. The settings on record: mice dosed with niraparib.
Data set [8] deals with platinum-sensitive recurrent ovarian cancer. The settings on record: for patients with PFS events at the time of unblinding: patients entering with PR; for Time to second subsequent treatment, HR: <40% of events.
Data set [9] deals with PARP activity. Nature of the data set: cells.
The test system of data set [10] is MDA-MB-436, CAPAN-1, GRANTA-519, OVCAR3, HT29, DLD-1, patient derived Ewing's sarcoma and TNBC xenograft models. The settings on record: xenograft models in mice.
The subject of data set [11] is ovarian cancer. The settings on record: relatively small sample size; cited from earlier work.
Data set [12] relates to platinum-sensitive epithelial ovarian cancer. The settings on record: cited from earlier work.
The test system of data set [13] is ovarian cancer. The settings on record: cited from earlier work.
For data set [14], the system named is ovarian cancer. The settings on record: cited from earlier work. This is another data set of the same source.
Data set [15] concerns advanced BRCA-mutant ovarian cancer. The settings on record: cited from earlier work.
The mark [16] stands for this setting: all patients treated with niraparib.
Setting [17] is: HRDneg group, listed as Niraparib.

The structures appear in SMILES notation. Several values for one entry are separate records, joined by “and”; a condition that tells them apart may be missing. Equal entries are not always repeated. Structures can show the parent of a compound that is named as a salt. Where two headings read alike, the source gives them in different places.

As usually defined, the IC50 is the point on the concentration scale where inhibition reaches its midpoint. Regarding `NC(=O)c1cccc2cn(-c3ccc([C@@H]4CCCNC4)cc3)nc12` [niraparib, (3S)-3-[4-{7-(aminocarbonyl)-2H-indazol-2-yl}phenyl]piperidine], the “consequence on cell cycle” value in [1] (BRCA-defective cells) is listed as “cell cycle arrest in G2/M followed by apoptosis”. The anti-proliferative activity entry in data set [1] (compared to wild type counterparts) is listed as “selective anti-proliferative activity”. Moreover, the “target engagement (PARP activity)” value in data set [2] was “Target engagement has also been demonstrated”. The cytotoxicity result in data set [3] is listed as “selectively cytotoxic”. Also, the “bioavailability in fed versus fasted state” value in data set [4] is “substantially similar”. The “activity on normal human cells” value in [5] was “weak activity”. Further, in data set [6] (ITT population), the “rate of MDS/AML” value was determined as 1.3%. Besides, in data set [6] (setting [16]), the “treatment-emergent grade 3/4 anemia” value is listed as 24.8%, the “treatment-emergent grade 3/4 neutropenia” value was 11.2% and the “treatment-emergent grade 3/4 thrombocytopenia” value is on record as 28.3%. The “grade 5 events” value in data set [6] (human, in vivo, 300 mg QD) is given as “No grade 5 events occurred”. For the same compound, in data set [6] (in vivo), the “TEAEs leading to dose reduction” value is recorded as 67%, the “TEAEs leading to treatment discontinuation” value is recorded as 15%, the “TEAEs leading to treatment interruption” value is listed as 69% and the “grade 3 or 4 bleeding event” value is given as “No patient”. Also, in data set [6] (in vivo), the “incidence of CTCAE Grade ≥3 TEAEs” value came to 74%, the “incidence of SAEs” value was 30%, the “incidence of treatment-related TEAEs” value came to 98% and the “patients remaining on niraparib for the duration of the study” value is given as ~85%. In addition, the “patients with at least 1 TEAE” value in data set [6] (in vivo) is recorded as “all patients”. Also, in data set [6] (overall niraparib treated population, after decrease by day 15), the “mean platelet count over time” value is reported as “generally returned to near baseline by Cycle 4”. The “incidence of MDS/AML” value in data set [6] (patients who received niraparib (5 of 367)) is 1.4% and 1%. The “PARP activity in PBMCs” value in [7] is recorded as “Inhibition of PARP activity”. For the same compound, in data set [8] (HRDneg group), the “% of Patients without Progression or Death at 6 Months” value is listed as 54%, the “% of Patients without Progression or Death at 12 Months” value was found to be 27% and the “% of Patients without Progression or Death at 18 Months” value came to 19%. For the same compound, in [8] (setting [17]), the “% of Patients without Progression or Death at 12 Months” value is reported as 27% and the “% of Patients without Progression or Death at 18 Months” value turned out to be 19%. For the same compound, in [8] (HRDpos group), the “% of Patients without Progression or Death at 6 Months” value stood at 69%, the “% of Patients without Progression or Death at 12 Months” value came out at 51% and the “% of Patients without Progression or Death at 18 Months” value is 37%. Besides, in data set [8] (both cohorts, versus placebo), the chemotherapy-free interval result was “significantly improved” and the “time to first subsequent treatment” value is listed as “significantly improved”. Further, the “Overall Survival, HR” value in [8] (combined cohorts, data immature, 80% of patients censored) is “HR 0.73 (95% CI: 0.480, 1.125)”. Further, the “Median PFS” value in [8] (combined study population (gBRCAmut and non-gBRCAmut), exploratory pooled analysis) is recorded as 11.3 months. Also, in [8] (gBRCAmut and non-gBRCAmut cohorts), the “PFS by niraparib dose of longest duration (100, 200, 300 mg)” value was “consistent with the overall population”. In [8] (gBRCAmut cohort), the “% of Patients without Progression or Death at 6 Months” value is 80%, the “% of Patients without Progression or Death at 12 Months” value is listed as 62%, the “% of Patients without Progression or Death at 18 Months” value is 50% and the “Median PFS” value is 21.0 Months. Moreover, in data set [8] (gBRCAmut cohort), the “progression-free survival 2” value worked out at 25.8 months. Also, the “Median PFS” value in data set [8] (gBRCAmut cohort, listed as Niraparib) was 21.0 Months and 21.0 (12.9, NE) Months. In addition, in [8] (gBRCAmut), the “patients with PFS events at the time of unblinding” value is 45%. For the same compound, the “Time to second subsequent treatment, HR” value in data set [8] (gBRCAmut, data immature) is listed as “HR 0.48 (95% CI: 0.272, 0.851)”. The “impact of treatment on OS” value in data set [8] (in vivo) is “no detrimental impact”. Moreover, in [8] (non-gBRCAmut cohort), the “% of Patients without Progression or Death at 6 Months” value is given as 61%, the “% of Patients without Progression or Death at 12 Months” value was 41% and the “% of Patients without Progression or Death at 18 Months” value is on record as 30%. The “Median PFS” value in data set [8] (non-gBRCAmut, HRD negative) is on record as 6.9 Months. For the same compound, the “Median PFS” value in [8] (non-gBRCAmut, HRD negative, listed as Niraparib) is 6.9 Months and 6.9 (5.6, 9.6) Months. Moreover, in [8] (non-gBRCAmut, HRD-positive), the “Median PFS” value is listed as 12.9 Months. In addition, the “Median PFS” value in data set [8] (non-gBRCAmut, HRD-positive, listed as Niraparib) was 12.9 Months and 12.9 (8.1, 15.9) Months. Further, the “Median PFS” value in data set [8] (non-gBRCAmut, HRDpos/BRCAwt) stood at 9.3 Months. Further, the “Median PFS” value in data set [8] (non-gBRCAmut, HRDpos/somatic BRCAmut) is given as 20.9 Months. For the same compound, the “patients with PFS events at the time of unblinding” value in data set [8] (non-gBRCAmut) was 56%. Also, in data set [8] (non-gBRCAmut, data immature), the “Time to second subsequent treatment, HR” value is “HR 0.74 (95% CI: 0.519, 1.066)”. In data set [8] (overall non-gBRCAmut cohort), the “Median PFS” value came out at 9.3 Months and the “median PFS 2” value is reported as 18.64 months. Also, the “Median PFS” value in data set [8] (overall non-gBRCAmut cohort, listed as Niraparib) was 9.3 Months and 9.3 (7.2, 11.2) Months. In addition, in data set [8] (pooled cohorts, versus placebo), the “PFS2-PFS1 (efficacy of next-line treatment)” value is given as “similar”. Also, the IC50 in data set [9] (read-out: IC50 of PARP activity in cells) is ~4 nM. In [9] (read-out: inhibitory concentration at 90% of control (IC90)), the IC90 is ~50 nM. The antitumor activity entry in data set [10] is reported as “strong antitumor activity”.

`C[C@]1(c2nc3c(C(N)=O)cccc3[nH]2)CCCN1` [veliparib, 2-[(R)-2-methylpyrrolidin-2-yl]-1H-benzimidazole-4-carboxamide]: the “effect on the progression of ovarian cancer” value in data set [11] is listed as “unable to show any effect”.

Turning to `O=C(c1cc(Cc2n[nH]c(=O)c3ccccc23)ccc1F)N1CCN(C(=O)C2CC2)CC1` [olaparib, 4-[(3-{[4-(cyclopropylcarbonyl)piperazin-1-yl]carbonyl}-4-fluorophenyl)methyl]phthalazin-1(2H)-one], the “serious adverse events versus control group” value in [12] (human, in vivo) is “more common”. The “change in overall survival” value in data set [12] (women with germline BRCA mutations, versus placebo or no treatment) is “no significant change”. For the same compound, the responses in data set [13] (17 patients with BRCA1 or BRCA2 mutations) is 7; in data set [13] (46 patients without these mutations), 11. For the same compound, the “Median PFS” value in [14] (patients with BRCA mutations) is given as 11.2 months. In [14] (phase II maintenance study), the “planned analysis of the subset of patients with BRCA mutations” value is on record as “a clear advantage”.

On to `CNCc1ccc(-c2[nH]c3cc(F)cc4c3c2CCNC4=O)cc1` [rucaparib, 8-fluoro-2-{4-[(methylamino)methyl]phenyl}-1,3,4,5-tetrahydro-6H-azepino[5,4,3-cd]indol-6-one ((1S,4R)-7,7-dimethyl-2-oxobicyclo[2.2.1]hept-1-yl)methanesulfonic acid salt], for which the “Response assessment by independent radiology review” value in [15] (600 mg orally twice daily, 106 patients) is given as 42%. In addition, the “median DOR” value in data set [15] (independent radiology review) is on record as 6.7 months. Besides, the “Investigator-assessed ORR” value was 0% in data set [15] (platinum-refractory patients), 25% in data set [15] (platinum-resistant patients) and 66% in data set [15] (platinum-sensitive patients).

(Values after US12383542B2, “Methods of treating ovarian cancer” (TESARO, INC., priority 2016, dated 2025).)
